According to ChEMBL document CHEMBL5154812, “Development of novel urea-based ATM kinase inhibitors with subnanomolar cellular potency and high kinome selectivity” (Eur J Med Chem, 2022):
≈ marks a conversion by molar mass, not a printed value. Blank lines part the entries; values can stand above or below the compound they belong to.

How the values were obtained:
[1] = target: T1, Serine-protein kinase ATM (Homo sapiens, UniProt Q13315); experiment: Inhibition of ATM (unknown origin) by FRET assay
T1 sequence (Q13315 whole entry): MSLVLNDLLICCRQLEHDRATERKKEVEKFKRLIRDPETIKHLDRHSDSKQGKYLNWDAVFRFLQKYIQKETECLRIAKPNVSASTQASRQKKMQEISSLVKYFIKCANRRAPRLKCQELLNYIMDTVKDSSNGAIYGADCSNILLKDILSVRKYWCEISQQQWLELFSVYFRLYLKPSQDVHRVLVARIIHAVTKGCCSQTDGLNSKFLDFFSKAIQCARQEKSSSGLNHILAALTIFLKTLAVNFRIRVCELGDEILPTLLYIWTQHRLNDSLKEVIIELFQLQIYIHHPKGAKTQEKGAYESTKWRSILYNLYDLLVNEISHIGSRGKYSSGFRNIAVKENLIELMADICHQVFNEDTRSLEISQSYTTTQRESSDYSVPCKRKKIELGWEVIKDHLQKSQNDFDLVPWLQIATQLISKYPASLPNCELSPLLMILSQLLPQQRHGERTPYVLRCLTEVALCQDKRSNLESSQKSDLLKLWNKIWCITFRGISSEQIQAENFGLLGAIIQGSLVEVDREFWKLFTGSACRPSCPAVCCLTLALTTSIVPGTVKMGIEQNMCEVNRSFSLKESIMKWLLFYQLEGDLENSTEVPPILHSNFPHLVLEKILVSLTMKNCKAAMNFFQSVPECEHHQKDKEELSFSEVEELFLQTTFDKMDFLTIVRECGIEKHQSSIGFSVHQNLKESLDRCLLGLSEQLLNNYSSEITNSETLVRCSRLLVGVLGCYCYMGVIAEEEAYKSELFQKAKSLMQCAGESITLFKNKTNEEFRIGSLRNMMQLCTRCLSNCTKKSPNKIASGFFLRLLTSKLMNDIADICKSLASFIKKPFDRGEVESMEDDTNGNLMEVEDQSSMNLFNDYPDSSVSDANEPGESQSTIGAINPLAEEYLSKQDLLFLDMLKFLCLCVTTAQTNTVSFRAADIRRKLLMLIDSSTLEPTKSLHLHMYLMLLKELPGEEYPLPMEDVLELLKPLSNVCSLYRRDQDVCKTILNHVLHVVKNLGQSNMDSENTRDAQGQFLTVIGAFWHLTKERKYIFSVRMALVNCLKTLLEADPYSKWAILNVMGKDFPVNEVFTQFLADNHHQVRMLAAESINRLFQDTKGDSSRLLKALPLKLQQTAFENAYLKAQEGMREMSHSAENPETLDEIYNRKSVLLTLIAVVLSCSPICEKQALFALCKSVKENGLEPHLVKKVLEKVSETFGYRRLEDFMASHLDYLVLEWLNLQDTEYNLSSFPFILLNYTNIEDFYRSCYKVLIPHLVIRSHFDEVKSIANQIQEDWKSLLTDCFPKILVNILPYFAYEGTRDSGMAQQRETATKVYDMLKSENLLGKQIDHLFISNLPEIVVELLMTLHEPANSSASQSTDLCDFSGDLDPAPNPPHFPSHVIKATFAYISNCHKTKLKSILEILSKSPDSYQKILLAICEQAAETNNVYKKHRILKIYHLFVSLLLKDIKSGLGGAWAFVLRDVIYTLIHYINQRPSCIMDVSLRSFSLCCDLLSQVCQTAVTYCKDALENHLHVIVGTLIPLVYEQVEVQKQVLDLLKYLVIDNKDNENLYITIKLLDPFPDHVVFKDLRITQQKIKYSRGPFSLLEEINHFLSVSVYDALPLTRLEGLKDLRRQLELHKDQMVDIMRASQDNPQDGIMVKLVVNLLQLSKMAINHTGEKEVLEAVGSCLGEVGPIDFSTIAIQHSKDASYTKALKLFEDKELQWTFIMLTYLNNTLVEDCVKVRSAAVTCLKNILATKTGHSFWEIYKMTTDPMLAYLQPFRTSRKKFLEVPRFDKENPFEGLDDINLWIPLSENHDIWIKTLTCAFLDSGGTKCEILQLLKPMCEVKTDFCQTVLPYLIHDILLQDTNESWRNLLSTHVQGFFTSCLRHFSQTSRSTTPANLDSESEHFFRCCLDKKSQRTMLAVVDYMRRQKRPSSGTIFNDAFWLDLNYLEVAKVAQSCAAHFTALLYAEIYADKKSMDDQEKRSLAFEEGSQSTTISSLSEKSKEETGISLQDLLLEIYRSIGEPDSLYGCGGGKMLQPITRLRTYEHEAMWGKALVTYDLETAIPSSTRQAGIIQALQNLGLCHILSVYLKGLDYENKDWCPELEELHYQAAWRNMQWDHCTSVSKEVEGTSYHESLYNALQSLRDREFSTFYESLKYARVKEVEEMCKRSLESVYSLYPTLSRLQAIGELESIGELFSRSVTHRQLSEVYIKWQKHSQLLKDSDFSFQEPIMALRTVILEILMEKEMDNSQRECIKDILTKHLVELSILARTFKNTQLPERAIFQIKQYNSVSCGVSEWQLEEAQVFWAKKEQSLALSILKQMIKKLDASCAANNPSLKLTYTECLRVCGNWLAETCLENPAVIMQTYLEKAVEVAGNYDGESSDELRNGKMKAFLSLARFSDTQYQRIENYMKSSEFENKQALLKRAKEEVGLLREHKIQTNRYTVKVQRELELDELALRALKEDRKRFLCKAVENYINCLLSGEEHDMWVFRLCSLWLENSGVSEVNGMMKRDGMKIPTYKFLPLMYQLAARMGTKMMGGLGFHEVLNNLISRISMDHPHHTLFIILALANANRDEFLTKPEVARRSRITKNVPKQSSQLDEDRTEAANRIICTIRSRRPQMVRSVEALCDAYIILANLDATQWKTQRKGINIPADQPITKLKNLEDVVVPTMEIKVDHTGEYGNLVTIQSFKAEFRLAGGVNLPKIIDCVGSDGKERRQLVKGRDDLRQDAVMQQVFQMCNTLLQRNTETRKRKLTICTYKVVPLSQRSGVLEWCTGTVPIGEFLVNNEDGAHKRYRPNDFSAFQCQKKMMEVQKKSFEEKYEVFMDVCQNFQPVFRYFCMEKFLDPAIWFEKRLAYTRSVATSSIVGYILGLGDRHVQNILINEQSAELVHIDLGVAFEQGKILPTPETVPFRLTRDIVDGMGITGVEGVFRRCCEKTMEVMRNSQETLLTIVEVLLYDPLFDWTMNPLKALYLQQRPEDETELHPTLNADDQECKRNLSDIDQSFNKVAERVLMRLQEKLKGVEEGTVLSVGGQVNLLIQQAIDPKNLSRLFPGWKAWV

[2] = target: T1, Serine-protein kinase ATM; experiment: Inhibition of ATM in human A549 cells assessed as reduction in etoposide-stimulated KAP1 phosphorylation by In-Cell-Western assay; assay type: cell-based
[3] = Thermodynamic solubility of compound in PBS at pH 7.4; assay type: physicochemical; settings: read-out: Therm_solubility
[4] = target: Leucine-rich repeat serine/threonine-protein kinase 2 (Homo sapiens) (UniProt Q5S007); experiment: Inhibition of LRRK2 (unknown origin) assessed as residual activity at 1 uM relative to control
[5] = target: Phosphatidylinositol 4,5-bisphosphate 3-kinase catalytic subunit alpha isoform (Homo sapiens) (UniProt P42336); experiment: Inhibition of PI3Kalpha (unknown origin) assessed as residual activity at 1 uM relative to control
[6] = target: Serine/threonine-protein kinase ATR (Homo sapiens) (UniProt Q13535); experiment: Inhibition of ATR (unknown origin) assessed as residual activity at 1 uM relative to control
[7] = target: T2, Phosphatidylinositol 4,5-bisphosphate 3-kinase catalytic subunit delta isoform (Homo sapiens) (UniProt O00329); experiment: Inhibition of PI3Kdelta (unknown origin) assessed as residual activity at 1 uM relative to control
T2 sequence (whole entry): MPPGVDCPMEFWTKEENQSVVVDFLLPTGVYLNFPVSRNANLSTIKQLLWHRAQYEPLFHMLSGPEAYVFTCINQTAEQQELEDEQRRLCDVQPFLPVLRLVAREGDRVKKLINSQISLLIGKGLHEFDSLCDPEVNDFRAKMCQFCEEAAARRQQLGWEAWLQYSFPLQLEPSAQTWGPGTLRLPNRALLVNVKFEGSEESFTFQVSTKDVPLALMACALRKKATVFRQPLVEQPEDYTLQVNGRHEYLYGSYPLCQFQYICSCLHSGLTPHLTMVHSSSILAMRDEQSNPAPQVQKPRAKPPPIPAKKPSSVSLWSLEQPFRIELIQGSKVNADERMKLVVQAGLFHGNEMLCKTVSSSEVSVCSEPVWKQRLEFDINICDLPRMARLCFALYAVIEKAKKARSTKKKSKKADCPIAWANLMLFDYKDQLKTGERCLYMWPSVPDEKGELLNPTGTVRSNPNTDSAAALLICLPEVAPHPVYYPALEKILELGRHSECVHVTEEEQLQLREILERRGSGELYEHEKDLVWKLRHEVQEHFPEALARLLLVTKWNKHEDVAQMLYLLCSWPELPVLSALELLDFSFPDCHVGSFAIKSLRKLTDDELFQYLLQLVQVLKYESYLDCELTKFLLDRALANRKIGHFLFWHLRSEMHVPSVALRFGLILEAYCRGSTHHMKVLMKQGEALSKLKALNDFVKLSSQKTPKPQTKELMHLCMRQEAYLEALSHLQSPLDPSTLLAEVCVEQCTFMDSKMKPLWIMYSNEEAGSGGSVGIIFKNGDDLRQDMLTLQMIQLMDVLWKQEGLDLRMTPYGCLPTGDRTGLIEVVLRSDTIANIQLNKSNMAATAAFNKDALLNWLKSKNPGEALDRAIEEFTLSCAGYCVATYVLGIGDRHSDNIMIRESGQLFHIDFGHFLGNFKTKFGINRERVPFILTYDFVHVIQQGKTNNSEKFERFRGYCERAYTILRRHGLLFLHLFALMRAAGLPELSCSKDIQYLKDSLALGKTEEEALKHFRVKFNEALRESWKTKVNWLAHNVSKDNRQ

[8] = target: Phosphatidylinositol 4,5-bisphosphate 3-kinase catalytic subunit beta isoform (Homo sapiens) (UniProt P42338); experiment: Inhibition of PI3Kbeta (unknown origin) assessed as residual activity at 1 uM relative to control
[9] = Metabolic stability in mouse liver microsomes assessed as parent compound remaining after 120 mins
[10] = target: DNA-dependent protein kinase catalytic subunit (Homo sapiens) (UniProt P78527); experiment: Inhibition of DNA-PK (unknown origin) assessed as residual activity at 1 uM relative to control
[11] = target: Serine/threonine-protein kinase mTOR (Homo sapiens) (UniProt P42345); experiment: Inhibition of mTOR (unknown origin) assessed as residual activity at 1 uM relative to control
[12] = target: Phosphatidylinositol 4,5-bisphosphate 3-kinase catalytic subunit gamma isoform (Homo sapiens) (UniProt P48736); experiment: Inhibition of PI3Kgamma (unknown origin) assessed as residual activity at 1 uM relative to control
Chain of Phosphatidylinositol 4,5-bisphosphate 3-kinase catalytic subunit gamma isoform (Homo sapiens) (P48736 whole entry, looked up, canonical isoform): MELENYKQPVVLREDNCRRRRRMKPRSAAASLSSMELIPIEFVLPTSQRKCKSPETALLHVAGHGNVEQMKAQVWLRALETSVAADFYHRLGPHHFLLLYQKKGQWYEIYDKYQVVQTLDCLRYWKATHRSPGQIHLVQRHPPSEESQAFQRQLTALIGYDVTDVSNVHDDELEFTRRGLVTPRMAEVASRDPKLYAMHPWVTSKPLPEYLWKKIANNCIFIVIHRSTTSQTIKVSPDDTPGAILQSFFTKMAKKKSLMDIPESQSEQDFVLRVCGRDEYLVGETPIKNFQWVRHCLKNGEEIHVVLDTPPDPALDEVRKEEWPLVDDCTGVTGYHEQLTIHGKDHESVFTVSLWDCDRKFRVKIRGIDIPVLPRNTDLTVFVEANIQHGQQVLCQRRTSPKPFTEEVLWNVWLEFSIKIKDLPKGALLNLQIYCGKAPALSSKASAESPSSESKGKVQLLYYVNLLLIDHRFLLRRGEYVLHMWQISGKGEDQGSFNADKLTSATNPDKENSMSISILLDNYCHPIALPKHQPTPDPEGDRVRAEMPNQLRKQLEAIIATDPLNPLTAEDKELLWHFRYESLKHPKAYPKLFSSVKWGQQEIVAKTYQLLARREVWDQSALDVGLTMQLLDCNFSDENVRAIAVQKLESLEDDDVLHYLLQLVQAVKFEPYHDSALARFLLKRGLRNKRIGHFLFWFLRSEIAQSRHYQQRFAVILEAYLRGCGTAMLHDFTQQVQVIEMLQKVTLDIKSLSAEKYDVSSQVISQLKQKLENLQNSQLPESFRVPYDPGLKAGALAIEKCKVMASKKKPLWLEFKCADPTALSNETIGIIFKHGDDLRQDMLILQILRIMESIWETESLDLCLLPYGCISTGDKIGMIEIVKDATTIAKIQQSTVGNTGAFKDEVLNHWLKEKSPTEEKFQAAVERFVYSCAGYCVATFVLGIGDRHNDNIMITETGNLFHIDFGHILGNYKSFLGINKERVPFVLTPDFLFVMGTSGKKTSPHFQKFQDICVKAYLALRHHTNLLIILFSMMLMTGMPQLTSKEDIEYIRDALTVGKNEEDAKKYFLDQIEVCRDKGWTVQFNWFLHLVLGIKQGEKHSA

Homo sapiens = organism: Homo sapiens; experiment: Selectivity ratio for inhibition of ATR (unknown origin) to inhibition of ATM (unknown origin)

IC50 [1]: < 1 nM
Compound: COCCn1c(=O)n(C)c2cnc3ccc(-c4ccc(NC(=O)NC5CCN(C)C5)cc4)cc3c21 (stereo not given)

IC50 [1]: 885 nM
Compound: COCCn1c(=O)n(C)c2cnc3ccc(-c4ccc(NC(=O)N5CCN(C)CC5)c(F)c4Cl)cc3c21

IC50 [2]: 1.33 nM
IC50 [1]: < 1 nM
Compound: COCCn1c(=O)n(C)c2cnc3ccc(-c4ccc(NC(=O)N(C)CCN(C)C)cc4)cc3c21

IC50 [1]: 212 nM
Compound: COCCn1c(=O)n(C)c2cnc3ccc(-c4ccc(NC(=O)N5CCN(C)CC5)c(F)c4F)cc3c21

IC50 [1]: 25 nM
Compound: COCCn1c(=O)n(C)c2cnc3ccc(-c4ccc(NC(=O)N5C[C@@H]6C[C@H]5CN6C)cc4)cc3c21

IC50 [1]: 37 nM
Compound: COCCn1c(=O)n(C)c2cnc3ccc(-c4ccc(NC(=O)NCCN(C)C)c(C)c4F)cc3c21

solubility thermodynamic [3]: 39 µM (≈ 19.1 µg/mL)
IC50 [1]: < 1 nM
Compound: CN(C)CCNC(=O)Nc1ccc(-c2ccc3ncc4c(c3c2)n(C2CCOCC2)c(=O)n4C)cc1

IC50 [1]: < 1 nM
Compound: COCCn1c(=O)n(C)c2cnc3ccc(-c4ccc(NC(=O)NC5CN(C)C5)cc4)cc3c21

Activity [4]: 87%
Activity [5]: -11%
Activity [6]: 109%
IC50 [2]: 0.32 nM
IC50 [1]: < 1 nM
Activity [7]: 23%
Activity [8]: 42%
remaining at 2 h [9]: 50%
Activity [10]: -4%
Activity [11]: -1%
Activity [12]: 34%
Selectivity ratio (Homo sapiens): > 1000
Compound: COCCn1c(=O)n(C)c2cnc3ccc(-c4ccc(NC(=O)NCCN5CC(F)C5)cc4)cc3c21

IC50 [1]: < 1 nM
Compound: COCCn1c(=O)n(C)c2cnc3ccc(-c4ccc(NC(=O)NC(C)CN(C)C)cc4)cc3c21 (stereo not given)

IC50 [1]: 159 nM
Compound: CCN1CCN(C(=O)Nc2ccc(-c3ccc4ncc5c(c4c3)n(CCOC)c(=O)n5C)cc2)CC1

IC50 [1]: 945 nM
Compound: COCCn1c(=O)n(C)c2cnc3ccc(-c4ccc(NC(=O)N5CCC(N(C)C)CC5)cc4)cc3c21

IC50 [1]: < 1 nM
Compound: COCCn1c(=O)n(C)c2cnc3ccc(-c4ccc(NC(=O)NC5CCCN(C)C5)cc4)cc3c21 (stereo not given)

IC50 [1]: 78 nM
Compound: COCCn1c(=O)n(C)c2cnc3ccc(-c4ccc(NC(=O)N5CCN(C)CC5)cc4)cc3c21

IC50 [1]: 2 nM
Compound: COCCn1c(=O)n(C)c2cnc3ccc(-c4ccc(NC(=O)N5CCC(NC(=O)OC(C)(C)C)CC5)cc4)cc3c21

IC50 [1]: 16 nM
Compound: COCCn1c(=O)n(C)c2cnc3ccc(-c4ccc(NC(=O)N5CCC(N)CC5)cc4)cc3c21

solubility thermodynamic [3]: 36 µM (≈ 17.6 µg/mL)
IC50 [1]: < 1 nM
Compound: CN(C)CCNC(=O)Nc1ccc(-c2ccc3ncc4c(c3c2)n(C2CCOCC2)c(=O)n4C)cn1

IC50 [1]: < 1 nM
Compound: COCCn1c(=O)n(C)c2cnc3ccc(-c4ccc(NC(=O)NC5CCN(C(=O)OC(C)(C)C)CC5)cc4)cc3c21

solubility thermodynamic [3]: 2970 µM (≈ 1370 µg/mL)
Compound: CN(C)CCCOc1ccc(-c2ccc3ncc4c(c3c2)n(C2CCOCC2)c(=O)n4C)cn1

IC50 [1]: 32 nM
Compound: COCCn1c(=O)n(C)c2cnc3ccc(-c4ccc(NC(=O)NCCN(C)C)c(F)c4Cl)cc3c21

IC50 [1]: < 1 nM
Compound: COCCn1c(=O)n(C)c2cnc3ccc(-c4ccc(NC(=O)NC5CCNCC5)cc4)cc3c21

Activity [4]: 92%
Activity [5]: 28%
Activity [6]: 104%
IC50 [2]: 0.71 nM
IC50 [1]: < 1 nM
Activity [7]: 35%
Activity [8]: 87%
remaining at 2 h [9]: 78%
Activity [10]: 8%
Activity [11]: 4%
Activity [12]: 80%
Selectivity ratio (Homo sapiens): > 1000
Compound: COCCn1c(=O)n(C)c2cnc3ccc(-c4ccc(NC(=O)NCCN(C)C)c(F)c4)cc3c21

IC50 [1]: 394 nM
Compound: COCCn1c(=O)n(C)c2cnc3ccc(-c4ccc(NC(=O)N5CCN(C)CC5)c(F)c4)cc3c21

IC50 [1]: 1580 nM
Compound: COCCn1c(=O)n(C)c2cnc3ccc(-c4ccc(NC(=O)N5CCN(C)CC5)c(C)c4F)cc3c21

IC50 [1]: 158 nM
Compound: COCCn1c(=O)n(C)c2cnc3ccc(-c4ccc(NC(=O)N5CCN(C(C)C)CC5)cc4)cc3c21

IC50 [2]: 0.65 nM
IC50 [1]: < 1 nM
Compound: COCCn1c(=O)n(C)c2cnc3ccc(-c4ccc(NC(=O)NCCN(C)C)cc4F)cc3c21

IC50 [2]: 3.31 nM
IC50 [1]: < 1 nM
Compound: COCCn1c(=O)n(C)c2cnc3ccc(-c4ccc(NC(=O)NCCN5CC(F)(F)C5)cc4)cc3c21

IC50 [1]: 101 nM
Compound: COCCn1c(=O)n(C)c2cnc3ccc(-c4ccc(NC(=O)N5CCN(C)CC5)cc4F)cc3c21

solubility thermodynamic [3]: 1570 µM (≈ 726 µg/mL)
IC50 [2]: 1.7 nM
IC50 [1]: < 1 nM
Compound: COCCn1c(=O)n(C)c2cnc3ccc(-c4ccc(NC(=O)NCCN(C)C)cc4)cc3c21

IC50 [2]: 0.92 nM
IC50 [1]: < 1 nM
Compound: COCCn1c(=O)n(C)c2cnc3ccc(-c4ccc(NC(=O)NCCN5CCC5)cc4)cc3c21
